Measured values published in patent US20260174786A1, “A NITROGEN-CONTAINING SPIROCYCLIC COMPOUND, PHARMACEUTICAL COMPOSITION AND USE THEREOF” (Prime Gene Therapeutics Co., Ltd., priority 2022, published 2026).

Key:
hTRPV3 = biological target: T1, hTRPV3 (Homo sapiens, UniProt Q8NET8); assay: Whole cell patch clamp inhibition rate test on HEK-293 cells instantaneously expressing TRPV3; format: cell-based; conditions: HEK293
T1 construct: expressed in transfected cells; host or cells: HEK-293
T1 sequence (Q8NET8 1-790): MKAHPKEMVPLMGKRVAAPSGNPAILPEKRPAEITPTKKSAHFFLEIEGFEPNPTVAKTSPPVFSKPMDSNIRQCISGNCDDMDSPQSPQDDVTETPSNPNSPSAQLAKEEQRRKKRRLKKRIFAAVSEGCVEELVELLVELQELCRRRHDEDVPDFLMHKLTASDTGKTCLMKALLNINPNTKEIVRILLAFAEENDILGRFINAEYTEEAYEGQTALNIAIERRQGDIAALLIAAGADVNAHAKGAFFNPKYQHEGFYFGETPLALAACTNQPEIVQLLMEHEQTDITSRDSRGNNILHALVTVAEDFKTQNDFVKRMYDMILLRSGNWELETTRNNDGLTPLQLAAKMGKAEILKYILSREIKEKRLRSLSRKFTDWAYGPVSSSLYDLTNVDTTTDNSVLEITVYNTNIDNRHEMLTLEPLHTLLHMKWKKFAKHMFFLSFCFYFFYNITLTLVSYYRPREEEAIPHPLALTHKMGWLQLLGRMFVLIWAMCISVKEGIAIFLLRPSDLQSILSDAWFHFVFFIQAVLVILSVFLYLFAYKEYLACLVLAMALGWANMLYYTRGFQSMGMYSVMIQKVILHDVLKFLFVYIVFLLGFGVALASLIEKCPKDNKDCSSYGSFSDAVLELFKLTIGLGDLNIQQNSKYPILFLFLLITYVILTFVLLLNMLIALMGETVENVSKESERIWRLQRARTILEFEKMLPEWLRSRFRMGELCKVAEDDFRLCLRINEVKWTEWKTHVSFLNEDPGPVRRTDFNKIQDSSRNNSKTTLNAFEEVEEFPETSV
How it was run: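 HEK-293 cells transiently transfected with TRPV3, recorded next-but-one day by whole-cell patch clamp at room temperature: holding −80 mV, ramp −100 to 100 mV over 100 ms every 5 s, peak current monitored. Ascending concentrations perfused, 5 min each; each cell its own control, at least two cells per concentration.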

[1] = Parallel artificial membrane permeability test (Lipid PAMPA); format: in vitro ADME; conditions: for recovery at 16 h, 10 μM: pH 7.4, test concentration 10 μM, read-out: rate of recovery %; for −LOG Pe / Papp at 16 h, 10 μM: test concentration 10 μM; for Papp at 16 h, 10 μM: pH 7.4, 16 hours, read-out: Effective penetration rate Pe
Procedure: 1. Preparing the test compound in 10 mM DMSO and diluting 1000 fold to 10 μM with PBS. 2. Ultrasonic treating lecithin in dodecane at a rate of 18 mg/ml. 3. Adding 300 μL/well of 10 μM test compound solution into the donor chamber (bottom) in triplicate. 4. Adding 5 μL/well lecithin/dodecane to the receptor chamber (top), and then adding 300 μL/well PBS (pH=7.4) to the receptor chamber within 10 minutes. 5. Transferring 50 μL of 10 μM test compound onto a sample plate containing 200 μL of cold methanol, with IS * being C0. 6. Inserting the receptor chamber into the donor chamber and incubating at 25° C. for 16 hours. 7. After 16 hours of incubation, transferring 50 μL from the receptor and donor compartments to a sample plate containing 200 μL of cold methanol and IS *. 8. Centrifuging the sample plate at 4° C. and 3220 g for 40 minutes. 9. Transferring 100 μL of supernatant to an analysis plate containing an appropriate volume of H2O for LC-MS/MS analysis. 10. Data analysis.

[2] = hTRPV3, single concentration 0.3 μM

| SMILES | inhibition at 0.3 µM (hTRPV3; [2]) [%] | recovery at 16 h, 10 μM [1] [%] | −LOG Pe [1] | Papp at 16 h, 10 μM [1] [×10⁻⁶ cm/s] | inhibition at 0.3 µM (hTRPV3; hTRPV3, 0.3 μM) [%] |
| --- | --- | --- | --- | --- | --- |
| O=C(c1ccc(F)cn1)N1CCC2(CC(O)c3cc(-c4ccccc4C4CC4)ccc32)C1 (stereo not drawn) [Example 15, (5-(2-cyclopropylphenyl)-3-hydroxy-2,3-dihydrospiro[indene-1,3′-pyrrolidine]-1′-yl)(5-fluoropyridin-2-yl) ketone] | 70 to 100 | 16.9 | 4.85 | 14.1 |  |
| O=C(c1ccc(F)cn1)N1CC[C@@]2(C[C@@H](O)c3cc(-c4ccccc4C4CC4)ccc32)C1 [Example 21, ((1S,3R)-5-(2-cyclopropylphenyl)-3-hydroxy-2,3-dihydrospiro[indene-1,3′-pyrrolidine]-1′-yl)(5-fluoropyridin-2-yl)ketone] | 70 to 100 | 18.8 | 4.79 | 16.3 | 89.6 |
